From patent publication US6855504B2, “In vivo high throughput toxicology screening method” (priority 1999, dated 2005)
Where two headings read alike, the source gives them in different places.

Legend:
Type in all cases: in vivo
Fly = test system: Fly
Protocol: The chemical is dissolved in water at or near its saturation point. Serial dilutions of this stock solution are used to rehydrate instant fly media (Fisher Scientific). Specifically, one toxicity assay will comprise of instant fly media rehydrated with pure stock solution of a chemical, while another will be rehydrated with a 10% solution of the chemical (in water). This format will be used to generate data over a 4 to 5 log dose range for each chemical tested.
A known quantity of embryos, typically between 40-50, is used as the input. Specifically, 40 to 50 embryos are counted and placed in the receptacle that contains the media/chemical mixture to be tested. The embryos may be counted manually or by automation (e.g., liquid suspension of embryos flowing through a diode). The larva feed on the media/chemical mixture. All aspects of development from larva stage to adult must proceed normally in the presence of the chemical. The only food and water source available to the larva and flies contains the chemical. […] Specifically, Iron, Copper, and zinc have been selected. Sensitive and accurate kits are commercially available to analyze these chemicals down to a concentration of 1 part per million. This will assign quantitative analyses to determine variability between larva in a test receptacle and between larva in different receptacles.
The developing larva and pupa are examined for normal growth and development. Then the adult flies are analyzed for lethality, sterility, developmental defects, and life span alterations. Lethality is determined by dividing the number of adult flies that eclose by the total number of embryos that were placed in the receptacle. Sterility is examined for both males and females by crossing them to normal flies. […] Finally the flies are allowed to live the natural span of their life to determine whether an effect occurred to either shorten or lengthen the average lifespan of the fly.
(§1) Using standard protocols, including the ones described above for administration to flies, a variety of agents were administered at different doses to mice, rats and flies and the LD for each agent was compared.

Rat = test system: Rat
Protocol: as §1

fruit fly = experiment: AntiToxicity screen: fly survival with toxins with and without EDTA; details: yeast paste: None
From the text: This binding can occur in vitro or in vivo. In vivo binding can lead to neutralizing the toxicity of heavy metals to animals.

Mouse = test system: Mouse
Protocol: as §1

Compound	Fly (oral LD50 mg/ml) (Fly; oral, chemical in fly media)	Rat (oral LD50 mg/ml) (Rat; oral)	Mouse (oral LD50 mg/ml) (Mouse; oral)	other results
CN(C)c1ccncc1 [4-dimethyl aminopyridine]	.15 mg/mL	250 mg/mL	–	–
[Cu] [Copper]	–	–	–	% survival (fruit fly; fly food: 0.4 mM Copper): 50%; % survival (fruit fly; fly food: 1.1 mM Copper): 0%
N[C@@H](Cc1ccc(O)c(O)c1)C(=O)O [L-dopa]	.7 mg/mL	1780 mg/mL	2363 mg/mL	–
[Zn] [Zinc]	–	–	–	% survival (fruit fly; fly food: 2 mM Zinc): 50%; % survival (fruit fly; fly food: 6.0 mM Zinc): 0%
O=S1(=O)OC(c2cc(Br)c(O)c(Br)c2)(c2cc(Br)c(O)c(Br)c2)c2ccccc21 [bromophenol blue]	10 mg/mL	–	–	–
[Cl][Cd][Cl] [cadmium chloride]	.1 mg/mL	88 mg/mL	60 mg/mL	–
Clc1cccc(Cl)c1N=C1NCCN1 [clonidine]	–	–	–	Fly (oral LD50 mg/ml) (Fly; in vivo, po): .07 mg/mL; Rat (oral LD50 mg/ml) (Rat; in vivo, po): 126 mg/mL; Mouse (oral LD50 mg/ml) (Mouse; in vivo, po): 135 mg/mL
[Cl-].[Li+] [lithium chloride]	.4 mg/mL	526 mg/mL	1165 mg/mL	–
COP(=O)(OC)C(O)C(Cl)(Cl)Cl (stereo not shown) [metrifonate]	.04 mg/mL	560 mg/mL	300 mg/mL	toxicity category in flies (Fly; flies, oral LD50 category): high toxic range; toxicity category in rats (Rat; rats, oral LD50 category): moderate toxicity; toxicity category in mice (Mouse; mice, oral LD50 category): moderate toxicity
NC(=O)c1cccnc1 [niacinamide]	–	–	–	Fly (oral LD50 mg/ml) (Fly; in vivo, po): 5 mg/mL; Rat (oral LD50 mg/ml) (Rat; in vivo, po): 3500 mg/mL; Mouse (oral LD50 mg/ml) (Mouse; in vivo, po): 2500 mg/mL
Nc1ccccc1N [phenylenediamine]	.2 mg/mL	510 mg/mL	366 mg/mL	–
[N-]=[N+]=[N-] [sodium azide]	.05 mg/mL	27 mg/mL	27 mg/mL	–
O.O.O.O.O.O.O.O.O.O.[Na+].[Na+].[O-]B1OB2OB([O-])OB(O1)O2 [sodium borate]	6.5 mg/mL	2660 mg/mL	2000 mg/mL	–
